Laboratory results taken from PMC10938783, “A novel pan-PI3K inhibitor KTC1101 synergizes with anti-PD-1 therapy by targeting tumor suppression and immune activation” (Molecular Cancer, 2024).

Columns and labels:
Format in all cases: cell-based
[1] = test system: TMD8 cells; experiment: Cell proliferation MTT assay; conditions: Homo sapiens; TMD8, 48-h treatment; read-out: IC50 cell viability
Description: (§1) Cell proliferation was measured by MTT assay as previously described. The cells were seeded in a volume of 200 μL/well in 96-well plates. The next day, cells were treated with DMSO or a series of concentrations of KTC1101. After a 48-h incubation period, 20 μL of MTT (5 mg/mL) was added to each well. After further incubation for 4 h at 37 °C, the absorbance at 490 nm was measured using an iMark microplate reader (BIO-RAD, Hercules, CA, USA).

[2] = test system: HSC2 cells; experiment: Cell proliferation MTT assay; conditions: Homo sapiens, HSC-2; HSC2, 48-h treatment; read-out: IC50 cell viability
Description: as §1

[3] = test system: PC3 cells; experiment: Cell proliferation MTT assay; conditions: Homo sapiens, PC-3; PC3, 48-h treatment; read-out: IC50 cell viability
Description: as §1

[4] = test system: HSC4 cells; experiment: Cell proliferation MTT assay; conditions: Homo sapiens, HSC-4; HSC4, 48-h treatment; read-out: IC50 cell viability
Description: as §1

[5] = test system: CAL33 cells; experiment: Cell proliferation MTT assay; conditions: Homo sapiens, CAL-33; CAL33, 48-h treatment; read-out: IC50 cell viability
Description: as §1

[6] = test system: MCF-7; experiment: JFCR39 sulforhodamine B growth assay; conditions: Homo sapiens, MCF7; MCF-7, 48 h
Description: (§2) JFCR39 drug discovery system was used to measure the growth inhibitory activities and identify the target of KTC1101. The JFCR39 panel consists of 39 cell lines seeded in 96-well plates. After 48-h treatment with KTC1101, cell growth was measured using the sulforhodamine B assay. […] The deviation of log GI50 for each cell line from the average log GI50 across the JFCR39 panel was plotted as a fingerprint. MG-MID (mean of Log GI50 values) represents the average log GI50 for all 39 cell lines. The most sensitive and least sensitive cell lines were identified by calculating the difference in their log GI50 values (Range) and the difference between the most sensitive cell line and the average GI50 on the JFCR39 panel (Delta). The fingerprint of KTC1101 was compared with the fingerprints of reference compounds in the database. The Pearson correlation coefficient (r) was calculated (n = 39).

[7] = test system: HT-29; experiment: JFCR39 sulforhodamine B growth assay; conditions: Homo sapiens, HT-29, 48 h
Description: as §2

[8] = test system: HCT-116; experiment: JFCR39 sulforhodamine B growth assay; conditions: Homo sapiens, HCT-116, 48 h
Description: as §2

[9] = test system: HCC2998; experiment: JFCR39 sulforhodamine B growth assay; conditions: Homo sapiens, HCC 2998; HCC2998, 48 h
Description: as §2

[10] = test system: RXF-631L; experiment: JFCR39 sulforhodamine B growth assay; conditions: Homo sapiens, 48 h
Description: as §2

[11] = test system: SF-295; experiment: JFCR39 sulforhodamine B growth assay; conditions: Homo sapiens, SF-295, 48 h
Description: as §2

[12] = test system: LOX-IMVI; experiment: JFCR39 sulforhodamine B growth assay; conditions: Homo sapiens, 48 h
Description: as §2

[13] = test system: HBC-4; experiment: JFCR39 sulforhodamine B growth assay; conditions: Homo sapiens, HBC4; HBC-4, 48 h
Description: as §2

[14] = test system: DU-145; experiment: JFCR39 sulforhodamine B growth assay; conditions: Homo sapiens, DU-145, 48 h
Description: as §2

[15] = test system: ACHN; experiment: JFCR39 sulforhodamine B growth assay; conditions: Homo sapiens, 48 h
Description: as §2

[16] = test system: NCI-H460; experiment: JFCR39 sulforhodamine B growth assay; conditions: Homo sapiens, NCI-H460, 48 h
Description: as §2

[17] = test system: OVCAR-5; experiment: JFCR39 sulforhodamine B growth assay; conditions: Homo sapiens, OVCAR-5, 48 h
Description: as §2

[18] = test system: BSY-1; experiment: JFCR39 sulforhodamine B growth assay; conditions: Homo sapiens, BSY-1, 48 h
Description: as §2

[19] = test system: NCI-H522; experiment: JFCR39 sulforhodamine B growth assay; conditions: Homo sapiens, NCI-H522, 48 h
Description: as §2

[20] = test system: MKN45; experiment: JFCR39 sulforhodamine B growth assay; conditions: Homo sapiens, MKN-45; MKN45, 48 h
Description: as §2

[21] = test system: OVCAR-3; experiment: JFCR39 sulforhodamine B growth assay; conditions: Homo sapiens, OVCAR-3, 48 h
Description: as §2

[22] = test system: SNB-78; experiment: JFCR39 sulforhodamine B growth assay; conditions: Homo sapiens, SNB-78, 48 h
Description: as §2

[23] = test system: SNB-75; experiment: JFCR39 sulforhodamine B growth assay; conditions: Homo sapiens, SNB-75, 48 h
Description: as §2

[24] = test system: NCI-H23; experiment: JFCR39 sulforhodamine B growth assay; conditions: Homo sapiens, NCI-H23, 48 h
Description: as §2

[25] = test system: MKN74; experiment: JFCR39 sulforhodamine B growth assay; conditions: Homo sapiens, MKN-74; MKN74, 48 h
Description: as §2

[26] = test system: MDA-MB-231; experiment: JFCR39 sulforhodamine B growth assay; conditions: Homo sapiens, MDA-MB-231, 48 h
Description: as §2

[27] = test system: MKN-B; experiment: JFCR39 sulforhodamine B growth assay; conditions: Homo sapiens, 48 h
Description: as §2

[28] = test system: MKN1; experiment: JFCR39 sulforhodamine B growth assay; conditions: Homo sapiens, MKN-1; MKN1, 48 h
Description: as §2

[29] = test system: OVCAR-8; experiment: JFCR39 sulforhodamine B growth assay; conditions: Homo sapiens, OVCAR-8, 48 h
Description: as §2

[30] = test system: SF-268; experiment: JFCR39 sulforhodamine B growth assay; conditions: Homo sapiens, SF-268, 48 h
Description: as §2

[31] = test system: KM-12; experiment: JFCR39 sulforhodamine B growth assay; conditions: Homo sapiens, KM12; KM-12, 48 h
Description: as §2

[32] = test system: A549; experiment: JFCR39 sulforhodamine B growth assay; conditions: Homo sapiens, A549, 48 h
Description: as §2

[33] = test system: U251; experiment: JFCR39 sulforhodamine B growth assay; conditions: Homo sapiens, U-251; U251, 48 h
Description: as §2

[34] = test system: NCI-H226; experiment: JFCR39 sulforhodamine B growth assay; conditions: Homo sapiens, NCI-H226, 48 h
Description: as §2

[35] = test system: SK-OV-3; experiment: JFCR39 sulforhodamine B growth assay; conditions: Homo sapiens, SK-OV-3, 48 h
Description: as §2

COc1cc(N)cc2c1nc(C(F)F)n2-c1nc(N2CCCOCC2)nc(N2CCOCC2)n1 [KTC1101, 2-(difluoromethyl)-4-methoxy-1-(4-morpholino-6-(1,4-oxazepan-4-yl)-1,3,5-triazin-2-yl)-1H-benzo[d]imidazol-6-amine]
IC50 [1]: 20.6 nM
IC50 [2]: 117 nM
IC50 [3]: 23.2 nM
IC50 [4]: 50.6 nM
IC50 [5]: 124 nM
GI50 [6]: 10 nM
GI50 [7]: 61.7 nM
GI50 [8]: 31.6 nM
GI50 [9]: 36.3 nM
GI50 [10]: 15.5 nM
GI50 [11]: 14.8 nM
GI50 [12]: 17.4 nM
GI50 [13]: 24.5 nM
GI50 [14]: 23.4 nM
GI50 [15]: 21.4 nM
GI50 [16]: 10 nM
GI50 [17]: 23.4 nM
GI50 [18]: 10 nM
GI50 [19]: 10 nM
GI50 [20]: 162 nM
GI50 [21]: 15.8 nM
GI50 [22]: 22.9 nM
GI50 [23]: 10 nM
GI50 [24]: 25.7 nM
GI50 [25]: 70.8 nM
GI50 [26]: 30.2 nM
GI50 [27]: 28.8 nM
GI50 [28]: 10 nM
GI50 [29]: 30.9 nM
GI50 [30]: 18.2 nM
GI50 [31]: 178 nM
GI50 [32]: 21.9 nM
GI50 [33]: 38 nM
GI50 [34]: 16.6 nM
GI50 [35]: 12.9 nM
